The record followed here is publication PMC6264278, “Corydaline Inhibits Multiple Cytochrome P450 and UDP-Glucuronosyltransferase Enzyme Activities in Human Liver Microsomes” (Molecules, 2011).

The structures appear in SMILES notation. Where two headings read alike, the source gives them in different places.

This data set addresses T1, CYP2D6 (Homo sapiens, UniProt P10635).
T1 construct: using pooled human liver microsomes; tissue BD Gentest Co. H161; host or cells: pooled human liver microsomes
The data set can be described thus: CYP2D6 bufuralol 1'-hydroxylation inhibition in pooled human liver microsomes. Format: in vitro ADME. The settings on record: for inhibition mode, CYP2D6 bufuralol 1'-hydroxylation: Lineweaver, Dixon and secondary reciprocal plots; for IC50: 5.0 μM bufuralol, mean ± SD, n = 3. The procedure:
Phenacetin O-deethylase, coumarin 7-hydroxylase, amodiaquine N-deethylase, diclofenac 4-hydroxylase, S-mephenytoin 4-hydroxylase, bufuralol hydroxylase, and midazolam 1’-hydroxylase activities were determined as probe activities for CYP1A2, CYP2A6, CYP2C8, CYP2C9, CYP2C19, CYP2D6, and CYP3A4, respectively, using cocktail incubation and liquid chromatography-tandem mass spectrometry (LC/MS/MS). The incubation mixtures were prepared in a total volume of 200 μL, as follows: pooled human liver microsomes (0.25 mg/mL), 1.3 mM NADPH, 3.3 mM MgCl2, 50 mM potassium phosphate buffer (pH 7.4), and a cocktail of probe substrates and various concentrations of corydaline (1−200 μM). The substrates were used at concentrations approximately equal to their respective Km values: 50 μM phenacetin, 2.5 μM coumarin, 2.5 μM amodiaquine, 10 μM diclofenac, 100 μM S-mephenytoin, 5 μM bufuralol, and 2.5 μM midazolam. After a 3-min pre-incubation period at 37 °C, the reactions were initiated by addition of an NADP generating system and incubated for 20 min at 37 °C in a shaking water bath. After incubation, the reaction was stopped by placement of the tubes on ice and addition of 100 μL of ice-cold methanol containing internal standards (^13C2,^15N-acetaminophen for acetaminophen and N-desethylamodiaquine, d5-7-hydroxycoumarin for 7-hydroxycoumarin, ^13C6-4-hydroxydiclofenac for 4-hydroxydiclofenac, d3-4-hydroxy-mephenytoin for 4-hydroxymephenytoin and hydroxymidazolam, d9-1-hydroxybufuralol for 1-hydroxybufuralol). The incubation mixtures were then centrifuged at 13,000 × g for 5 min. All incubations were performed in triplicate and the mean values were used. […] The reaction was started by addition of a cocktail of CYP probe substrates.
All 7 metabolites produced from the cocktail of CYP isoform-specific substrates were simultaneously determined by LC/MS/MS [25]. The system consisted of a tandem quadrupole mass spectrometer (TSQ Quantum Access, ThermoFisher Scientific, San Jose, CA, USA) coupled with a Nanospace SI-2 LC system. Separation was performed on an Atlantis dC18 column (5 μm, 2.1 mm i.d. ×100 mm, Waters, Milford, MA, USA) using the gradient elution of a mixture of 5% methanol in 0.1% formic acid (mobile phase A) and 95% methanol in 0.1% formic acid (mobile phase B) at a flow rate of 0.25 mL/min: 10% mobile phase B for 1 min, 10% to 95% mobile phase B for 1 min, 95% mobile phase B for 5 min. The column and autosampler temperatures were 50 and 6 °C, respectively. After 1.5 min, the LC eluent was diverted from waste to the mass spectrometer fitted with the electrospray ionization (ESI) source and operated in positive ion mode. […] Quantification was performed by selected reaction monitoring (SRM) of the [M+H]^+ ion and the related product ion for each metabolite. […]
Reactions were initiated by addition of NADPH at 37 °C and stopped after 15 min by placement of the incubation tubes on ice and addition of ice-cold methanol (100 μL) containing an internal standard (2.0 μg/mL ^13C6-4-hydroxydiclofenac for diclofenac, 0.5 μg/mL d3-4-hydroxymephenytoin for mephenytoin, or 0.5 μg/mL d9-1-hydroxy-bufuralol for bufuralol). The incubation mixtures were centrifuged at 13,000 × g for 5 min, and aliquots (5 μL) of the supernatants were analyzed by LC/MS/MS. […] Aliquots (5 μL) were analyzed by LC/MS/MS. […]

Broadly, the Ki is the dissociation constant of the complex between target and ligand, obtained from inhibition or displacement. Low readings indicate higher affinity, high ones lower affinity. By IC50 is commonly meant the midpoint of a concentration-inhibition curve.

T1 sequence (P10635 whole entry): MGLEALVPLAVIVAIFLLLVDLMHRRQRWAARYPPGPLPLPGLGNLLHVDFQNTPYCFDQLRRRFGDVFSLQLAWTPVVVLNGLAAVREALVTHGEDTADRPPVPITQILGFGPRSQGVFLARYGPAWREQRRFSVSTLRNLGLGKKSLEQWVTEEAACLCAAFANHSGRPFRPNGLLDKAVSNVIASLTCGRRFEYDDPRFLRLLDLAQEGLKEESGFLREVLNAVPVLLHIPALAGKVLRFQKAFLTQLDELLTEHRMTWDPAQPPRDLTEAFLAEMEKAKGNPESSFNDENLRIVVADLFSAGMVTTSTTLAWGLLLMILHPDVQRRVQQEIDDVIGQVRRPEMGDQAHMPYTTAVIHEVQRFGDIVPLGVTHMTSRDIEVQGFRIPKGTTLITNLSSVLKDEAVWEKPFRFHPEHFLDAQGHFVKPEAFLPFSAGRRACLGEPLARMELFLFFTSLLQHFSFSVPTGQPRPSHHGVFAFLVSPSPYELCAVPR

As for `COc1cc2c(cc1OC)C1C(C)c3ccc(OC)c(OC)c3CN1CC2` (centres unmarked) [Corydaline, 2,3,9,10-tetramethoxy-13-methyl-5,8,13,13a-tetrahydro-6H-isoquino[3,2-a]isoquinoline], the “inhibition mode, CYP2D6 bufuralol 1'-hydroxylation” value is reported as “competitively”. The “inhibition mode, CYP2D6 bufuralol 1'-hydroxylation” value (listed as corydaline) was “competitive”. This molecule also returned a Ki (human liver microsomes, 0.5-5 μM bufuralol) of 27.3 ± 0.7 µM. The IC50 (pooled human liver microsomes (H161), read-out: IC50 no preincubation, CYP2D6 bufuralol 1'-hydroxylation) worked out at 64.5 ± 9.8 µM. In addition, the IC50 (pre-incubated 30 min with NADPH, read-out: IC50 with preincubation, CYP2D6 bufuralol 1'-hydroxylation) is 116 ± 7.6 µM.
